Data set [1] concerns Vitis vinifera var. Gamay rouge cells. In words: Elicitation of t-resveratrol production in grapevine cell suspension, Gamay rouge. It is filed as cell-based. To be noted: cyclodextrin 50 mmol/liter in medium (BETA 15 mmol/liter); 96 hours of incubation; occasional presence of other unidentified phenolic products. How it is done: Vitis vinifera var. Gamay rouge: A grapevine cell line established by J. C. Pech in 1978 (ENSAT, Toulouse, France) from immature fruits of grapevine from the cultivar Gamay Fréaux has been used. The calluses were kept in 250 ml flasks containing 80 ml of Gamborg B5 basal medium (Gamborg et al. 1968. Experimental Cell Research 50:151-158) supplemented with Morel vitamins (Morel, G. 1970. “Le probléme de la transformation tumorale chez les végétaux”. Physiologie Végétale, 8:189-204), casein hydrolysate (0.25 g/l), saccharose (20 g/l) as carbonated source, and α-nafthalenacetic acid (0.1 mg/l) and kinetin (0.2 mg/l) as hormones (hereinafter, medium). This medium is adjusted to pH 6 and sterilized by applying humid heat (autoclave) for 20 min at a pressure of 121.2 kPa (1.2 athm), acquiring a solid consistency by the addition of purified agar (8 g/l) when the medium is cooled. Cell suspensions were started, from friable calluses obtained in the above described medium, in 250 ml flasks containing 80 ml of agar-free medium. The cells in liquid medium were kept in an orbital shaker at 100 rpm and 25° C., under a photoperiod of 14 hours of light (6 W/m^2) and 10 h in the dark.
(§1) For each elicitation experience, 4 g of fresh weight of cells previously washed with fresh medium and filtered were taken under sterile conditions. These cells were transferred to 50 ml flasks and replaced by the addition of 10 ml of sterile fresh medium supplemented in each case with the cyclodextrins stated below:
(§2) The flasks were incubated under the same conditions as described above for time periods ranging from 24 and 96 hours.
(§3) Once the incubation time had been completed, the cells were separated from the medium by filtration by making a slight vacuum with the help of a water pump, and the cells and the filtrate were separately collected.
(§4) For this, an aliquot of the filtrate was diluted in fresh medium, filtered through a 0.2 μm Anopore filter, and 20 μl of filtrate were injected in a LiChrospher 100 RP-18 column (250×4 mm, particle size 5 μm). Two types of solvents were used as mobile phase: solvent A, 0.05% trifluoroacetic acid in water, and solvent B, 0.05% trifluoroacetic acid in methanol:acetonitrile 60:40 vol/vol. The sample is eluted at a flow rate of 1 ml/min of the following solvent mixture: 0 min, 10% B; 5 min, 15% B; 40 min, 35% B; 45 min, 65% B; 50 min, 65% B; 55 min, 10% B; and at a column temperature of 35° C. (Dalluge et al., 1998. J. Chromatogr. A 793:265-274). […] Gamay corresponding to the start of incubation and to 96 hours of incubation in a culture medium containing RAMEB.
For routine analysis of t-resveratrol, an aliquot of the filtrate was diluted with fresh medium and its ultraviolet absorption spectrum was recorded using a Kontron Uvikon 940 spectrophotometer taking as reference the fresh medium. The concentration of t-resveratrol in the supernatant was estimated using a molar extinction coefficient at 306 nm of 26,800 M^−1 cm^−1 (Siemann, E. H. and Creasy, L. L. 1992, “Concentration of the phytoalexin resveratrol in wine”, Am. J. Enol. Vitic. 43:49-52). […] Gamay corresponding to the start of incubation and to 96 hours of incubation in a culture medium containing RAMEB.
The results obtained, expressed as mg of t-resveratrol per litre of filtrate, eliciting the cells with different cyclodextrins at concentrations of 50 mmol/litre of culture medium (except for BETA, for which the concentration corresponds to 15 mmol/litre due to its lower solubility), after 96 hours of incubation are given in Table 1.

Data set [2] has as its system Vitis vinifera var. Monastrell albino line cells. Briefly: Elicitation of t-resveratrol production in grapevine cell suspension, Monastrell albino. Format: cell-based. Particulars: cyclodextrin 50 mmol/liter in medium (BETA 15 mmol/liter); 96 hours of incubation; kept in the dark. How it is done:
(§5) Vitis vinifera var. Monastrell: Two grapevine cell lines of cultivar Monastrell, one established in the dark (albino line) and another established in the presence of white light (green line) from immature fruits have been used. All manipulations and incubations for the green line were carried out in lighting conditions, but for the albino line, incubations for callus generation, development, and growth, as well as incubations of cell suspensions, were performed in the dark. For this, immature grapes approximately 5 mm in diameter were superficially sterilized by immersion in a 7% calcium hypochlorite solution for 15 minutes. After this time, and always under sterile conditions, grapes were washed 3 times with sterile bidistilled water, their seeds removed, and were divided into 4 portions. These portions (explants) were deposited until microcalluses appeared in a Petri dish containing a solid culture medium based on the medium reported by Murashige and Skoog (Murashige, T and Skoog, F. 1962. “A revised medium for rapid growth and bioassays with tobacco tissue cultures”. Physiologia Plantarum 15:473-497), supplemented with Morel vitamins, casein hydrolysate (0.25 g/l), saccharose (30 g/l) as carbonated source, and α-nafthalenacetic acid (0.1 mg/l) and kinetin (0.2 mg/l) as hormones, 8 g/l of purified agar, and adjusted to pH 6. Finally, these microcalluses were transferred to 250 ml flasks containing 80 ml of this same solid culture medium for callus development. Cell suspensions were started, from friable calluses, in 250 ml flasks containing 80 ml of Gamborg B5 basal medium, supplemented with Morel vitamins, casein hydrolysate (0.25 g/l), saccharose (20 g/l) as carbonated source, and α-nafthalenacetic acid (0.1 mg/l) and kinetin (0.2 mg/l) as hormones, in the absence of agar. The cells in liquid medium were kept in an orbital shaker at 100 rpm and 25° C.; the green line was submitted to a photoperiod of 14 hours of light (6 W/m^2) and 10 h in the dark, whereas the albino line was kept in the dark at all times.
as §1, §2, §3, §4
(§6) For routine analysis of t-resveratrol, an aliquot of the filtrate was diluted with fresh medium and its ultraviolet absorption spectrum was recorded using a Kontron Uvikon 940 spectrophotometer taking as reference the fresh medium. The concentration of t-resveratrol in the supernatant was estimated using a molar extinction coefficient at 306 nm of 26,800 M^−1 cm^−1 (Siemann, E. H. and Creasy, L. L. 1992, “Concentration of the phytoalexin resveratrol in wine”, Am. J. Enol. Vitic. 43:49-52). […]

Data set [3] relates to Vitis vinifera var. Monastrell green line cells. In words: Elicitation of t-resveratrol production in grapevine cell suspension, Monastrell green. Format: cell-based. To be noted: cyclodextrin 50 mmol/liter in medium (BETA 15 mmol/liter); 96 hours of incubation; heavy presence of cis-resveratrol. The method, then: as §5, §1, §2, §3, §4, §6
Data set [4] has as its system grapevine cells in suspension. In words: Effect of cyclodextrins on grapevine cells in suspension (overall comparison, toxicity). To be noted: for Capacity to induce the synthesis of t-resveratrol compared with the other cyclodextrins tested: grapevine cells in suspension, 96 hours. It is filed as cell-based, Vitis vinifera. The method, then: as §1, §2
It is also noted that the intensity of the effect depends on the variety and the cell line (greater production is seen in the albino Monastrell variety than in the green Monastrell variety).

The test system of data set [5] is grapevine cell suspensions (Vitis vinifera var. Gamay). To be noted: cited from earlier work.
A short description of data set [6]: Solubility of t-resveratrol in an aqueous medium. Format: physicochemical. To be noted: 25° C., 5 days in the dark. How it is done:
Five millilitres of a 11,410 mg/l solution of t-resveratrol (99% pure according to the supplier; Sigma, Madrid) in ethanol were placed in an spherical bottle, and ethanol was evaporated to dryness with a N2 current. Residual ethanol was eliminated by keeping the bottle under low pressure overnight. Five millilitres of aqueous medium were added to the solid residue, and the bottle was tightly closed and kept under shaking at 25° C. for 5 days in the dark. The resulting suspension was filtered through 0.2 μm Anopore filters, and the concentration of t-resveratrol in the filtrate was analyzed by UV spectroscopy.
The concentration of t-resveratrol in the filtrates, expressed as mg oft-resveratrol per litre of filtrate, is given in Table 2.

Data set [7] deals with crypt formation in aberrant colon. To be noted: rat model treated with a carcinogenic agent (azoxymethane); cited from earlier work.

On to `OC[C@H]1O[C@@H]2O[C@H]3[C@H](O)[C@@H](O)[C@@H](O[C@H]4[C@H](O)[C@@H](O)[C@@H](O[C@H]5[C@H](O)[C@@H](O)[C@@H](O[C@H]6[C@H](O)[C@@H](O)[C@@H](O[C@H]7[C@H](O)[C@@H](O)[C@@H](O[C@H]8[C@H](O)[C@@H](O)[C@@H](O[C@H]1[C@H](O)[C@H]2O)O[C@@H]8CO)O[C@@H]7CO)O[C@@H]6CO)O[C@@H]5CO)O[C@@H]4CO)O[C@@H]3CO` [BETA, β-cyclodextrin], for which the “Trans-Resveratrol (mg/l) in filtrate, Gamay Rouge” value (shortened to “Trans-Resveratrol … Gamay Rouge”) in data set [1] was found to be 30 mg/L. Also, the “Trans-Resveratrol (mg/l) in filtrate, Monastrell albino” value (“Trans-Resveratrol … Monastrell albino” for short) in data set [2] was 60 mg/L. In addition, the “Trans-Resveratrol (mg/l) in filtrate, Monastrell green” value (from here on “Trans-Resveratrol … Monastrell green”) in data set [3] was found to be 0 mg/L.

As to “sulphated β-cyclodextrin sodium salt [SULFOB]”, the “Trans-Resveratrol … Gamay Rouge” value in data set [1] worked out at 0 mg/L. In addition, in data set [2], the “Trans-Resveratrol … Monastrell albino” value is 0 mg/L. For the same compound, in data set [3], the “Trans-Resveratrol … Monastrell green” value was determined as 0 mg/L. Besides, in data set [4] (50 mmol/liter in culture medium), the “Toxicity to grapevine cells in suspension” value is “toxic and kill the cells”.

For `COC[C@H]1O[C@@H]2O[C@H]3[C@H](O)[C@@H](OC)[C@@H](O[C@H]4[C@H](O)[C@@H](OC)[C@@H](O[C@H]5[C@H](O)[C@@H](OC)[C@@H](O[C@H]6[C@H](O)[C@@H](OC)[C@@H](O[C@H]7[C@H](O)[C@@H](OC)[C@@H](O[C@H]8[C@H](O)[C@@H](OC)[C@@H](O[C@H]1[C@H](O)[C@H]2OC)O[C@@H]8COC)O[C@@H]7COC)O[C@@H]6COC)O[C@@H]5COC)O[C@@H]4COC)O[C@@H]3COC` [DIMEB, Heptakis (2,6-di-O-methyl)-β-cyclodextrin], the “Trans-Resveratrol … Gamay Rouge” value in data set [1] is 3060 mg/L. Also, the “Trans-Resveratrol … Monastrell albino” value in data set [2] is 4680 mg/L. Moreover, the “Trans-Resveratrol … Monastrell green” value in data set [3] worked out at 90 mg/L. Moreover, the “Ability to induce synthesis of t-resveratrol excreted into the culture medium” value in data set [5] is reported as “induce”.

For the compound “Randomly methylated β-cyclodextrin [RAMEB]”, in data set [1], the “Trans-Resveratrol … Gamay Rouge” value was 3320 mg/L. Also, the “Trans-Resveratrol … Monastrell albino” value in data set [2] is 5027 mg/L. Moreover, the “Trans-Resveratrol … Monastrell green” value in data set [3] stood at 101 mg/L. The “Capacity to induce the synthesis of t-resveratrol compared with the other cyclodextrins tested” value in data set [4] is given as “greater capacity to induce the synthesis of t-resveratrol”.

Consider `Oc1ccc(/C=C/c2cc(O)cc(O)c2)cc1` [t-resveratrol, trans-3,5,4′-trihydroxystilbene], for which the Solubility of t-resveratrol is recorded as 767 mg t-resveratrol/liter filtrated in data set [6] (Culture medium supplemented with 6.55 mg/ml of CAVASOL ® W7 M); 735 mg t-resveratrol/liter filtrated in data set [6] (Culture medium supplemented with 6.55 mg/ml of DIMEB); 786 mg t-resveratrol/liter filtrated in data set [6] (Culture medium supplemented with 6.55 mg/ml of RAMEB); 48.8 mg t-resveratrol/liter filtrated in data set [6] (Culture medium); 36.5 mg t-resveratrol/liter filtrated in data set [6] (Ultrapure water). In data set [7], the “Inhibition of crypt formation in aberrant colon” value is reported as “significant inhibition of crypt formation”.

Take `OC[C@H]1O[C@H](O[C@H]2[C@H](O)[C@@H](O)[C@@H](OC[C@H]3O[C@@H]4O[C@H]5[C@H](O)[C@@H](O)[C@@H](O[C@H]6[C@H](O)[C@@H](O)[C@@H](O[C@H]7[C@H](O)[C@@H](O)C(O[C@H]8[C@H](O)[C@@H](O)[C@@H](O[C@H]9[C@H](O)[C@@H](O)[C@@H](O[C@H]%10[C@H](O)[C@@H](O)[C@@H](O[C@H]3[C@H](O)[C@H]4O)O[C@@H]%10CO)O[C@@H]9CO)O[C@@H]8CO)O[C@@H]7CO)O[C@@H]6CO)O[C@@H]5CO)O[C@@H]2CO)[C@H](O)[C@@H](O)[C@@H]1O` [MALTOSYL, Maltosyl-β-cyclodextrin]: in data set [1], the “Trans-Resveratrol … Gamay Rouge” value stood at 390 mg/L. In data set [2], the “Trans-Resveratrol … Monastrell albino” value came out at 660 mg/L. Also, the “Trans-Resveratrol … Monastrell green” value in data set [3] was determined as 20 mg/L.

Regarding “Randomly methylated β-cyclodextrin [CAVASOL ® W7 M]”, the “Trans-Resveratrol … Gamay Rouge” value in data set [1] turned out to be 3280 mg/L. In addition, in data set [2], the “Trans-Resveratrol … Monastrell albino” value was 4963 mg/L. Further, in data set [3], the “Trans-Resveratrol … Monastrell green” value is 92 mg/L. The “Capacity to induce the synthesis of t-resveratrol compared with the other cyclodextrins tested” value in data set [4] is recorded as “greater capacity to induce the synthesis of t-resveratrol”.

For “(2-hydroxy) propyl-β-cyclodextrin [HYPROB]”, in data set [1], the “Trans-Resveratrol … Gamay Rouge” value was 990 mg/L. For the same compound, in data set [2], the “Trans-Resveratrol … Monastrell albino” value stood at 4110 mg/L. Moreover, the “Trans-Resveratrol … Monastrell green” value in data set [3] turned out to be 90 mg/L.

(Values after patent publication US7309591B2, “Method for the production of resveratrol in cell cultures” (Universidad de Alicante, priority 2002, dated 2007).)
